Like-named read-outs stand apart in the source and are kept apart here.
Assays:
Assay type in all cases: cell-based
RSV strain A2 = test: RSV HEp-2 EC50 (infectious cytopathic cell protection assay); details: HEp-2 cells, RSV A2, 4 days, read-out: RSV HEp-2 EC50
Procedure, shortened: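 HEp-2 cells mixed with titered RSV A2 at 50,000 cells/ml were added to plates holding 3-fold serial compound dilutions in DMSO, then incubated 4 days at 37° C. Cytoprotection was read as cell viability by CellTiter-Glo luminescence and converted to percent inhibition against 0% and 100% inhibition controls.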

RSV A2 = test: RSV NHBE EC50 (RSV A2 antiviral assay in normal human bronchial epithelial cells); details: NHBE cells, RSV A2, 4 days, read-out: RSV NHBE EC50
HRV16 = HRV16 HELA EC50 (cytopathic effect in H1-HeLa cells)
Procedure, shortened: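 H1-HeLa cells seeded one day before, given 3-fold serial compound dilutions in triplicate just prior to infection with pre-titrated virus. Incubated 96 h at 33 °C/5% CO2; protection from cytopathic effect read as viability by CellTiter-Glo luminescence, normalised to infected untreated (0%) and uninfected (100%) controls.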

DENV2 replicon = test: DENV-2 Huh-7 Rep EC50 (replicon luminescence); details: Huh-7 replicon cells, 48 hours, read-out: DENV-2 Huh-7 Rep EC50
Procedure, shortened: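 Huh-7 cells carrying a DENV2 replicon, 5,000 cells/well, were incubated with dosed compounds for 48 h at 37° C. EnduRen live-cell substrate was added 1.5 h before luminescence reading. EC50 came from dose-response against DMSO-only wells.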

[1] = human respiratory syncytial virus, HEp-2, 96 h
[2] = human respiratory syncytial virus, NHBE, 96 h
[3] = 96 h, H1-HeLa cells, 33° C., read-out: HRV16 HELA EC50
[4] = Dengue virus, DENV2, Huh-7, 48 h
[5] = H1-HeLa cells, 96 h, 33° C.; read-out: HRV16 HELA EC50

| Structure (SMILES) | EC50 (RSV strain A2; [1]) [µM] | EC50 (RSV A2; [2]) [µM] | EC50 (HRV16; [3]) [µM] | EC50 (DENV2 replicon; [4]) [µM] | EC50 (RSV strain A2) [µM] | EC50 (RSV A2) [µM] | EC50 (HRV16; [5]) [µM] | EC50 (DENV2 replicon) [µM] |
| --- | --- | --- | --- | --- | --- | --- | --- | --- |
| CC(C)OC(=O)[C@@H](C)NP(=O)(OC[C@@]1(C#N)O[C@@H](c2ccc3c(N)ncnn23)[C@H](O)[C@@H]1O)Oc1ccccc1 (stereo partly drawn) [Example 86, (2R)-isopropyl 2-(((((2R,3S,4R,5S)-5-(4-aminopyrrolo[2,1-f][1,2,4]triazin-7-yl)-2-cyano-3,4-dihydroxytetrahydrofuran-2-yl)methoxy)(phenoxy)phosphoryl)amino)propanoate] | 22.6 | > 5 | > 50 | > 50 |  |  |  |  |
| CC[C@H](NP(=O)(OC[C@@]1(C#N)O[C@@H](c2ccc3c(N)ncnn23)[C@H](O)[C@@H]1O)Oc1ccccc1)C(=O)OC(C)C (stereo partly drawn) [Example 87, (2S)-isopropyl 2-(((((2R,3S,4R,5S)-5-(4-aminopyrrolo[2,1-f][1,2,4]triazin-7-yl)-2-cyano-3,4-dihydroxytetrahydrofuran-2-yl)methoxy)(phenoxy)phosphoryl)amino)butanoate] | 1.34 | 1.7 | 6.71 | > 100 |  |  |  |  |
| CCOC(=O)[C@H](CC)NP(=O)(OC[C@@]1(C#N)O[C@@H](c2ccc3c(N)ncnn23)[C@H](O)[C@@H]1O)Oc1ccccc1 (stereo partly drawn) [Example 97, (2S)-ethyl 2-(((((2R,3S,4R,5S)-5-(4-aminopyrrolo[2,1-f][1,2,4]triazin-7-yl)-2-cyano-3,4-dihydroxytetrahydrofuran-2-yl)methoxy)(phenoxy)phosphoryl)amino)butanoate] | 0.537 | 1.37 | 4.42 | > 100 |  |  |  |  |
| CC(C)[C@H](NP(=O)(OC[C@@]1(C#N)O[C@@H](c2ccc3c(N)ncnn23)[C@H](O)[C@@H]1O)Oc1ccccc1)C(=O)OC1CCCCC1 (stereo partly drawn) [Example 98, cyclohexyl ((((2R,3S,4R,5S)-5-(4-aminopyrrolo[2,1-f][1,2,4]triazin-7-yl)-2-cyano-3,4-dihydroxytetrahydrofuran-2-yl)methoxy)(phenoxy)phosphoryl)-L-valinate] | > 50 | > 5 | > 50 | > 50 |  |  |  |  |
| CC(C)OC(=O)C[C@H](C)NP(=O)(OC[C@@]1(C#N)O[C@@H](c2ccc3c(N)ncnn23)[C@H](O)[C@@H]1O)Oc1ccccc1 (stereo partly drawn) [Example 99, (3S)-isopropyl 3-(((((2R,3S,4R,5S)-5-(4-aminopyrrolo[2,1-f][1,2,4]triazin-7-yl)-2-cyano-3,4-dihydroxytetrahydrofuran-2-yl)methoxy)(phenoxy)phosphoryl)amino)butanoate] | > 50 | > 5 | > 50 | > 50 |  |  |  |  |
| CCC(CC)COC(=O)C1(NP(=O)(OC[C@@]2(C#N)O[C@@H](c3ccc4c(N)ncnn34)[C@H](O)[C@@H]2O)Oc2ccccc2)CCC1 (stereo partly drawn) [Example 100, 2-ethylbutyl 1-(((((2R,3S,4R,5S)-5-(4-aminopyrrolo[2,1-f][1,2,4]triazin-7-yl)-2-cyano-3,4-dihydroxytetrahydrofuran-2-yl)methoxy)(phenoxy)phosphoryl)amino)cyclobutanecarboxylate] | > 5.6 | 3.6 | 18 | > 50 |  |  |  |  |
| C[C@@H](NP(=O)(OC[C@@]1(C#N)O[C@@H](c2ccc3c(N)ncnn23)[C@H](O)[C@@H]1O)Oc1ccccc1)C(=O)OCC(C)(C)C (stereo partly drawn) [Example 102, (2R)-neopentyl 2-(((((2R,3S,4R,5S)-5-(4-aminopyrrolo[2,1-f][1,2,4]triazin-7-yl)-2-cyano-3,4-dihydroxytetrahydrofuran-2-yl)methoxy)(phenoxy)phosphoryl)amino)propanoate] | 9.95 | > 5 | 16.7 | > 100 |  |  |  |  |
| CC[C@H](N[P@@](=O)(OC[C@@]1(C#N)O[C@@H](c2ccc3c(N)ncnn23)[C@H](O)[C@@H]1O)Oc1ccccc1)C(=O)OC1CCCCC1 [Example 104] |  |  |  |  | 0.79 | 0.368 | 1.8 | > 50 |
| CC[C@H](N[P@](=O)(OC[C@@]1(C#N)O[C@@H](c2ccc3c(N)ncnn23)[C@H](O)[C@@H]1O)Oc1ccccc1)C(=O)OC1CCCCC1 [Example 105] |  |  |  |  | 3.44 | 2.02 | 16.9 | > 50 |
| N#C[C@]1(COP(=O)(NC2(C(=O)OC3CCCCC3)CCC2)Oc2ccccc2)O[C@@H](c2ccc3c(N)ncnn23)[C@H](O)[C@@H]1O (stereo partly drawn) [Example 107, cyclohexyl 1-(((((2R,3S,4R,5S)-5-(4-aminopyrrolo[2,1-f][1,2,4]triazin-7-yl)-2-cyano-3,4-dihydroxytetrahydrofuran-2-yl)methoxy)(phenoxy)phosphoryl)amino)cyclobutanecarboxylate] | > 14.2 | > 2.89 | > 35.7 | > 50 |  |  |  |  |
| C[C@H](NP(=O)(OC[C@@]1(C#N)O[C@@H](c2ccc3c(N)ncnn23)[C@H](O)[C@@H]1O)Oc1ccccc1)C(=O)OC1CCCC1 (stereo partly drawn) [Example 108, (2S)-cyclopentyl 2-(((((2R,3S,4R,5S)-5-(4-aminopyrrolo[2,1-f][1,2,4]triazin-7-yl)-2-cyano-3,4-dihydroxytetrahydrofuran-2-yl)methoxy)(phenoxy)phosphoryl)amino)propanoate] | 0.147 | 0.239 | 0.289 | 40.8 |  |  |  |  |
| CC[C@H](NP(=O)(OC[C@@]1(C#N)O[C@@H](c2ccc3c(N)ncnn23)[C@H](O)[C@@H]1O)Oc1ccccc1)C(=O)OC1CCCC1 (stereo partly drawn) [Example 109, (2S)-cyclopentyl 2-(((((2R,3S,4R,5S)-5-(4-aminopyrrolo[2,1-f][1,2,4]triazin-7-yl)-2-cyano-3,4-dihydroxytetrahydrofuran-2-yl)methoxy)(phenoxy)phosphoryl)amino)butanoate] | 1.07 | 0.452 | 2.49 | > 50 |  |  |  |  |
| CCC(CC)COC(=O)[C@@H](NP(=O)(OC[C@@]1(C#N)O[C@@H](c2ccc3c(N)ncnn23)[C@H](O)[C@@H]1O)Oc1ccccc1)C1CCCCC1 (stereo partly drawn) [Example 116, (2S)-2-ethylbutyl 2-(((((2R,3S,4R,5S)-5-(4-aminopyrrolo[2,1-f][1,2,4]triazin-7-yl)-2-cyano-3,4-dihydroxytetrahydrofuran-2-yl)methoxy)(phenoxy)phosphoryl)amino)-2-cyclohexylacetate] | > 100 | > 5 | > 31.9 | 11.7 |  |  |  |  |
| C[C@H](NP(=O)(OC[C@@]1(C#N)O[C@@H](c2ccc3c(N)ncnn23)[C@H](O)[C@@H]1O)Oc1ccccc1)C(=O)OC1CCC1 (stereo partly drawn) [Example 118, (2S)-cyclobutyl 2-(((((2R,3S,4R,5S)-5-(4-aminopyrrolo[2,1-f][1,2,4]triazin-7-yl)-2-cyano-3,4-dihydroxytetrahydrofuran-2-yl)methoxy)(phenoxy)phosphoryl)amino)propanoate] | 0.214 | 0.316 | 0.424 | 27 |  |  |  |  |
| N#C[C@]1(COP(=O)(N[C@H](C(=O)OCC2CC2)C2CCCCC2)Oc2ccccc2)O[C@@H](c2ccc3c(N)ncnn23)[C@H](O)[C@@H]1O (stereo partly drawn) [Example 121, (2S)-cyclopropylmethyl 2-(((((2R,3S,4R,5S)-5-(4-aminopyrrolo[2,1-f][1,2,4]triazin-7-yl)-2-cyano-3,4-dihydroxytetrahydrofuran-2-yl)methoxy)(phenoxy)phosphoryl)amino)-2-cyclohexylacetate] | > 100 | > 5 | > 100 | 56.7 |  |  |  |  |
| C[C@H](NP(=O)(OC[C@@]1(C#N)O[C@@H](c2ccc3c(N)ncnn23)[C@H](O)[C@@H]1O)Oc1ccccc1)C(=O)O[C@H]1CCNC1 (stereo partly drawn) [Example 122, (2S)—(S)-pyrrolidin-3-yl 2-(((((2R,3S,4R,5S)-5-(4-aminopyrrolo[2,1-f][1,2,4]triazin-7-yl)-2-cyano-3,4-dihydroxytetrahydrofuran-2-yl)methoxy)(phenoxy)phosphoryl)amino)propanoate] | 4.04 | > 5 | 29.3 | > 50 |  |  |  |  |
| N#C[C@]1(COP(=O)(N[C@H](C(=O)OCC2CC2)C2CCCC2)Oc2ccccc2)O[C@@H](c2ccc3c(N)ncnn23)[C@H](O)[C@@H]1O (stereo partly drawn) [Example 123, (2S)-cyclopropylmethyl 2-(((((2R,3S,4R,5S)-5-(4-aminopyrrolo[2,1-f][1,2,4]triazin-7-yl)-2-cyano-3,4-dihydroxytetrahydrofuran-2-yl)methoxy)(phenoxy)phosphoryl)amino)-2-cyclopentylacetate] | > 100 | > 5 | > 100 | 48.5 |  |  |  |  |
| Cc1oc(=O)oc1COC(=O)C1(NP(=O)(OC[C@@]2(C#N)O[C@@H](c3ccc4c(N)ncnn34)[C@H](O)[C@@H]2O)Oc2ccccc2)CCC1 (stereo partly drawn) [Example 125, (5-methyl-2-oxo-1,3-dioxol-4-yl)methyl 1-(((((2R,3S,4R,5S)-5-(4-aminopyrrolo[2,1-f][1,2,4]triazin-7-yl)-2-cyano-3,4-dihydroxytetrahydrofuran-2-yl)methoxy)(phenoxy)phosphoryl)amino)cyclobutane-1-carboxylate] | 3.3 | 3.65 | 7.65 | > 100 |  |  |  |  |

— patent US20230295201A1 (Gilead Sciences, Inc., priority 2020, published 2023)
